Measured values: patent US12312599B2, “Methods, compositions, and kits for producing beige adipocytes and treating metabolic disorders” (MaineHealth, priority 2018, dated 2025)

Tested on: FD-MSCs
Assay: PLIN and PPARγ2 immunostaining of differentiated FD-MSC cultures
Assay type: cell-based, human
Settings: SB-treated cultures
Method: All assays were performed between 7 and 15 passages. For osteocyte differentiation, mature MSCs were grown in 24 well culture plates to 100% confluency in MesenCult-ACF and induced to differentiate in OsteoLife Complete Osteogenesis Medium (Lifeline Cell Technology) for 21 days prior to staining with Lifeline Alizarin Red Stain to visualize calcium deposition. For chondrocyte differentiation. For beige adipogenic precursor generation, cells were grown in 24 well culture plates to 90% confluence and treated with 5 uM SB413542 (Sigma) and 10 nM human IL-4 (Peprotech) for 2 days. For beige adipogenic induction, adipogenic precursors are differentiated for 3 days with adipogenic medium consisting of T3 (2 nM), insulin (170 nM), rosiglitazone (1 μM), SB413542 (5 uM), IBMX (0.5 mM), dexamethasone (5 μM) and indomethacin (125 μM) in EGM-2 medium (Lonza) supplemented with the BulletKit minus FGF2 (modified from^33). Thereafter, cells are maintained in adipogenic medium without IBMX, dexamethasone and indomethacin. The medium was changed every 3 days and adipocytes were fully differentiated by 9-12 days as determined by lipid accumulation and peak expression of UCP1.
Cell Isolation, Expansion and Differentiation of Interscapular Brown Adipose Tissue Preadipocytes • 1. Prior to adipose cell isolation, warm DMEM, FBS and cell wash buffer to room temperature. • 2. […]

NC(=O)c1ccc(-c2nc(-c3ccc4c(c3)OCO4)c(-c3ccccn3)[nH]2)cc1 [SB, SB431542]
cells in culture that are mature adipocytes (PLIN and PPARγ2 staining): 87%-88%
